Each structure is given as a SMILES string. Entries after “also recorded” stand apart in the source; their conditions may differ.

Holding throughout (assay type): cell-based, human
Test [1] deals with GSS (glutatione synthetase). Nature of the test: Real time PCR of glutatione synthetase (GSS) in FT-skin model. The following applies: 24 hours, expression values very low and meaningless. The source says: (§1) 2) The ‘full thickness skin model’ (FT) (Phenion GmbH & Co., Frankfurt am Main, Germany) is a multi-layer human skin model consisting of keratinocytes and fibroblasts stemming from the same donor. After a culture period of five weeks, the ‘full thickness’ was fully developed and comprised epidermis, basal membrane and derma. The model was characterized with respect to the expression of fundamental markers of differentiation at the epidermis level (cytokeratin 10, philagrin, transglutaminase and involucrin), at the derma-epidermis junctions (laminin and collagen IV) and at dermal level (elastin fibronectin). The diameter of the model FT is of 1.3 cm.
(§2) In this study the following genes were employed:
(§3) The technique employs Taqman probes for detecting the fluorescent signal and it is very sensitive, consisting in the amplification and quantification of a specific sequence of nucleic acids. The detection of the PCR product occurs in real time. The quantification of DNA, cDNA or RNA is carried out by determining the cycle in which he PCR product can be detected for the first time, thus not at the moment when the reaction has become saturated. The quantification of the product occurs through the detection of fluorescence measured in each cycle; the strength of the signal is directly proportional to the amount of the amplified product. […]
(§4) Each biological sample is evaluated in triple tests. […]

For test [2], the system named is hyaluronate synthetase (HAS1). Nature of the test: Real time PCR of hyaluronate synthetase (HAS1) in FT-skin model.
From the text: as §1, §2, §3, §4

For the next test, the system named is involucrin (IVL). Put plainly: Real time PCR of involucrin (IVL) in FT-skin model. The following applies: 8, 24, 48 and 72 hours, repeated application for 3 days.
From the text: as §1, §2, §3, §4
(In qPCR the cycle at which signal appears reflects the starting amount.)

In another test the test system is philagrin (FLG). Put plainly: Real time PCR of philagrin (FLG) in FT-skin model.
From the text: as §1, §2, §3, §4

Test [3] deals with GCLC (glutamate-cysteinyl ligase). Nature of the test: Real time PCR of glutamate-cysteinyl ligase (GCLC) in FT-skin model. The following applies: 1% Biomass or GABA 1 mm dose, from 8 h.
From the text: as §1, §2, §3, §4

On to `NCCCC(=O)O` [GABA, gamma-aminobutyric acid], for which the “GSS gene modulation (RT-PCR)” value in test [1] is “just as a tendency”. Besides, the “hyaluronate synthetase (HAS) expression with respect to control sample” value in test [2] (24 hours, 1% Biomass or GABA 1 mm dose, high standard deviation) was “increased”. In addition, the “hyaluronate synthetase (HAS) expression” value in test [2] (48 hours, GABA 1 mm dose) is listed as “increased”. In the test with involucrin (IVL), the involucrin gene modulation result was “no significative modulation; also recorded: unmodulated”. Also, the values for the philagrin gene over-expression result in the test on philagrin (FLG) (24 hours) and in the test with philagrin (FLG) (72 hours (repeated application for 3 days)) were “evident” and “significative increase”, respectively. Moreover, the “GCLC gene expression (RT-PCR)” value in test [3] was “No gene modulation”.
